# Measured values from PubChem BioAssay (NCI).
#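 GI50 is the concentration that inhibits growth by half. TGI marks complete inhibition of growth.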
# How the values were obtained:
# Assay in all cases: NCI-60 cell line screen, 384-well format
# HOP-92 NSCLC = test system: HOP-92 NSCLC
# SNB-75 CNS = test system: SNB-75 CNS
# HOP-62 NSCLC = test system: HOP-62 NSCLC
# NCI-H23 lung = test system: NCI-H23 lung
# IGROV1 ovarian = test system: IGROV1 ovarian
# CAKI-1 renal = test system: CAKI-1 renal
# ACHN renal = test system: ACHN renal
# SNB-19 CNS = test system: SNB-19 CNS
# DU-145 prostate = test system: DU-145 prostate
# MOLT-4 leukemia = test system: MOLT-4 leukemia
# LOX IMVI melanoma = test system: LOX IMVI melanoma
# HCT-15 colon = test system: HCT-15 colon
# HS 578T breast = test system: HS 578T breast
# UACC-257 melanoma = test system: UACC-257 melanoma
# SF-295 CNS = test system: SF-295 CNS
# OVCAR-4 ovarian = test system: OVCAR-4 ovarian
# NCI-H522 lung = test system: NCI-H522 lung
# PC-3 prostate = test system: PC-3 prostate
# SF-539 CNS = test system: SF-539 CNS
# T-47D breast = test system: T-47D breast
# HCT-116 colon = test system: HCT-116 colon
# OVCAR-3 ovarian = test system: OVCAR-3 ovarian
# UACC-62 melanoma = test system: UACC-62 melanoma
# RXF 393 renal = test system: RXF 393 renal
# MDA-MB-468 breast = test system: MDA-MB-468 breast
# SK-MEL-28 melanoma = test system: SK-MEL-28 melanoma
# OVCAR-8 ovarian = test system: OVCAR-8 ovarian
# NCI-H226 lung = test system: NCI-H226 lung
# CCRF-CEM leukemia = test system: CCRF-CEM leukemia
# SW-620 colon = test system: SW-620 colon
# BT-549 breast = test system: BT-549 breast
# RPMI-8226 leukemia = test system: RPMI-8226 leukemia
# HL-60(TB) leukemia = test system: HL-60(TB) leukemia
# KM12 colon = test system: KM12 colon
# EKVX NSCLC = test system: EKVX NSCLC
# M14 melanoma = test system: M14 melanoma
# SF-268 CNS = test system: SF-268 CNS
# MDA-MB-435 melanoma = test system: MDA-MB-435 melanoma
# OVCAR-5 ovarian = test system: OVCAR-5 ovarian
# NCI-H322M lung = test system: NCI-H322M lung
# TK-10 renal = test system: TK-10 renal
# SK-OV-3 ovarian = test system: SK-OV-3 ovarian
# K-562 leukemia = test system: K-562 leukemia
# U251 glioblastoma = test system: U251 glioblastoma
# MALME-3M melanoma = test system: MALME-3M melanoma
# A498 renal = test system: A498 renal
# SN12C renal = test system: SN12C renal
# HT29 colon = test system: HT29 colon
# A549 NSCLC = test system: A549 NSCLC
# MCF7 breast = test system: MCF7 breast
# NCI/ADR-RES ovarian = test system: NCI/ADR-RES ovarian
# MDA-MB-231 breast = test system: MDA-MB-231 breast
# 786-0 renal = test system: 786-0 renal
# UO-31 renal = test system: UO-31 renal
# HCC-2998 colon = test system: HCC-2998 colon
# NCI-H460 NSCLC = test system: NCI-H460 NSCLC
# SK-MEL-5 melanoma = test system: SK-MEL-5 melanoma
smiles,measurement,setting,value
Nc1nc(Cl)nc2c1ncn2C1CC(O)C(CO)O1 (centres undefined),GI50,HOP-92 NSCLC,9.31 µM
same,TGI,HOP-92 NSCLC,> 100000 nM
same,GI50,SNB-75 CNS,19.9 µM
same,TGI,SNB-75 CNS,87.8 µM
same,GI50,HOP-62 NSCLC,236 nM
same,TGI,HOP-62 NSCLC,0.969 µM
same,GI50,NCI-H23 lung,212 nM
same,TGI,NCI-H23 lung,481 nM
same,GI50,IGROV1 ovarian,14.7 µM
same,TGI,IGROV1 ovarian,> 100 µM
same,GI50,CAKI-1 renal,353 nM
same,TGI,CAKI-1 renal,> 100000 nM
same,GI50,ACHN renal,923 nM
same,TGI,ACHN renal,5.14 µM
same,GI50,SNB-19 CNS,738 nM
same,TGI,SNB-19 CNS,> 100 µM
same,GI50,DU-145 prostate,808 nM
same,TGI,DU-145 prostate,> 100 µM
same,GI50,MOLT-4 leukemia,22.9 nM
same,TGI,MOLT-4 leukemia,59.6 nM
same,GI50,LOX IMVI melanoma,1110 nM
same,TGI,LOX IMVI melanoma,3800 nM
same,GI50,HCT-15 colon,395 nM
same,TGI,HCT-15 colon,> 100 µM
same,GI50,HS 578T breast,70.7 µM
same,TGI,HS 578T breast,> 100 µM
same,GI50,UACC-257 melanoma,1390 nM
same,TGI,UACC-257 melanoma,> 100000 nM
same,GI50,SF-295 CNS,11.2 µM
same,TGI,SF-295 CNS,34.1 µM
same,GI50,OVCAR-4 ovarian,> 100000 nM
same,TGI,OVCAR-4 ovarian,> 100 µM
same,GI50,NCI-H522 lung,830 nM
same,TGI,NCI-H522 lung,> 100000 nM
same,GI50,PC-3 prostate,> 100000 nM
same,TGI,PC-3 prostate,> 100 µM
same,GI50,SF-539 CNS,2630 nM
same,TGI,SF-539 CNS,12.2 µM
same,GI50,T-47D breast,6.73 µM
same,TGI,T-47D breast,> 100 µM
same,GI50,HCT-116 colon,270 nM
same,TGI,HCT-116 colon,> 100000 nM
same,GI50,OVCAR-3 ovarian,2090 nM
same,TGI,OVCAR-3 ovarian,> 100 µM
same,GI50,UACC-62 melanoma,177 nM
same,TGI,UACC-62 melanoma,501 nM
same,GI50,RXF 393 renal,47.8 µM
same,TGI,RXF 393 renal,> 100000 nM
same,GI50,MDA-MB-468 breast,3.03 µM
same,TGI,MDA-MB-468 breast,16.2 µM
same,GI50,SK-MEL-28 melanoma,552 nM
same,TGI,SK-MEL-28 melanoma,> 100 µM
same,GI50,OVCAR-8 ovarian,35.6 nM
same,TGI,OVCAR-8 ovarian,> 100 µM
same,GI50,NCI-H226 lung,3580 nM
same,TGI,NCI-H226 lung,18.2 µM
same,GI50,CCRF-CEM leukemia,81.2 nM
same,TGI,CCRF-CEM leukemia,206 nM
same,GI50,SW-620 colon,712 nM
same,TGI,SW-620 colon,> 100000 nM
same,GI50,BT-549 breast,184 nM
same,TGI,BT-549 breast,977 nM
same,GI50,RPMI-8226 leukemia,372 nM
same,TGI,RPMI-8226 leukemia,1610 nM
same,GI50,HL-60(TB) leukemia,35.3 nM
same,TGI,HL-60(TB) leukemia,108 nM
same,GI50,KM12 colon,994 nM
same,TGI,KM12 colon,> 100000 nM
same,GI50,EKVX NSCLC,> 100000 nM
same,TGI,EKVX NSCLC,> 100 µM
same,GI50,M14 melanoma,108 nM
same,TGI,M14 melanoma,448 nM
same,GI50,SF-268 CNS,2890 nM
same,TGI,SF-268 CNS,19.8 µM
same,GI50,MDA-MB-435 melanoma,743 nM
same,TGI,MDA-MB-435 melanoma,> 100 µM
same,GI50,OVCAR-5 ovarian,764 nM
same,TGI,OVCAR-5 ovarian,> 100 µM
same,GI50,NCI-H322M lung,37.5 µM
same,TGI,NCI-H322M lung,> 100 µM
same,GI50,TK-10 renal,> 100000 nM
same,TGI,TK-10 renal,> 100 µM
same,GI50,SK-OV-3 ovarian,3010 nM
same,TGI,SK-OV-3 ovarian,> 100 µM
same,GI50,K-562 leukemia,428 nM
same,TGI,K-562 leukemia,> 100000 nM
same,GI50,U251 glioblastoma,825 nM
same,TGI,U251 glioblastoma,15.8 µM
same,GI50,MALME-3M melanoma,308 nM
same,TGI,MALME-3M melanoma,> 100 µM
same,GI50,A498 renal,701 nM
same,TGI,A498 renal,> 100 µM
same,GI50,SN12C renal,122 nM
same,TGI,SN12C renal,926 nM
same,GI50,HT29 colon,1370 nM
same,TGI,HT29 colon,> 100000 nM
same,GI50,A549 NSCLC,434 nM
same,TGI,A549 NSCLC,> 100 µM
same,GI50,MCF7 breast,650 nM
same,TGI,MCF7 breast,> 100 µM
same,GI50,NCI/ADR-RES ovarian,0.135 µM
same,TGI,NCI/ADR-RES ovarian,> 100 µM
same,GI50,MDA-MB-231 breast,481 nM
same,TGI,MDA-MB-231 breast,> 100 µM
same,GI50,786-0 renal,1280 nM
same,TGI,786-0 renal,> 100 µM
same,GI50,UO-31 renal,372 nM
same,TGI,UO-31 renal,3.85 µM
CCn1cc(-c2ccnc3[nH]c(-c4cccc(CN(C)C)c4)cc23)c(-c2ccc(NC(=O)N(C)C)cc2)n1,GI50,HOP-92 NSCLC,0.449 µM
same,TGI,HOP-92 NSCLC,2720 nM
same,GI50,SNB-75 CNS,0.483 µM
same,TGI,SNB-75 CNS,2.22 µM
same,GI50,HOP-62 NSCLC,516 nM
same,TGI,HOP-62 NSCLC,7.57 µM
same,GI50,NCI-H23 lung,403 nM
same,TGI,NCI-H23 lung,2290 nM
same,GI50,IGROV1 ovarian,1.53 µM
same,TGI,IGROV1 ovarian,10.4 µM
same,GI50,CAKI-1 renal,246 nM
same,TGI,CAKI-1 renal,1940 nM
same,GI50,ACHN renal,2230 nM
same,TGI,ACHN renal,10.7 µM
same,GI50,SNB-19 CNS,2410 nM
same,TGI,SNB-19 CNS,14.2 µM
same,GI50,DU-145 prostate,2710 nM
same,TGI,DU-145 prostate,14.6 µM
same,GI50,MOLT-4 leukemia,< 10 nM
same,GI50,LOX IMVI melanoma,422 nM
same,TGI,LOX IMVI melanoma,1920 nM
same,GI50,HCT-15 colon,1940 nM
same,TGI,HCT-15 colon,9.96 µM
same,GI50,HS 578T breast,1.25 µM
same,TGI,HS 578T breast,3.17 µM
same,GI50,UACC-257 melanoma,1360 nM
same,TGI,UACC-257 melanoma,2710 nM
same,GI50,SF-295 CNS,1.91 µM
same,TGI,SF-295 CNS,10 µM
same,GI50,HCC-2998 colon,1690 nM
same,TGI,HCC-2998 colon,4.2 µM
same,GI50,OVCAR-4 ovarian,2260 nM
same,TGI,OVCAR-4 ovarian,13.9 µM
same,GI50,NCI-H522 lung,115 nM
same,TGI,NCI-H522 lung,1540 nM
same,GI50,PC-3 prostate,1680 nM
same,TGI,PC-3 prostate,7.38 µM
same,GI50,SF-539 CNS,327 nM
same,TGI,SF-539 CNS,2.04 µM
same,GI50,T-47D breast,1.42 µM
same,TGI,T-47D breast,9.45 µM
same,GI50,HCT-116 colon,158 nM
same,TGI,HCT-116 colon,1940 nM
same,GI50,UACC-62 melanoma,755 nM
same,TGI,UACC-62 melanoma,4340 nM
same,GI50,RXF 393 renal,0.0454 µM
same,TGI,RXF 393 renal,2740 nM
same,GI50,MDA-MB-468 breast,< 0.01 µM
same,GI50,SK-MEL-28 melanoma,1700 nM
same,TGI,SK-MEL-28 melanoma,4.76 µM
same,GI50,OVCAR-8 ovarian,1620 nM
same,TGI,OVCAR-8 ovarian,7.51 µM
same,GI50,NCI-H226 lung,186 nM
same,TGI,NCI-H226 lung,1.73 µM
same,GI50,SW-620 colon,750 nM
same,TGI,SW-620 colon,2350 nM
same,GI50,BT-549 breast,293 nM
same,TGI,BT-549 breast,1770 nM
same,GI50,RPMI-8226 leukemia,< 10 nM
same,TGI,RPMI-8226 leukemia,1430 nM
same,GI50,HL-60(TB) leukemia,< 10 nM
same,TGI,HL-60(TB) leukemia,1370 nM
same,GI50,KM12 colon,543 nM
same,TGI,KM12 colon,2980 nM
same,GI50,EKVX NSCLC,1110 nM
same,TGI,EKVX NSCLC,4.86 µM
same,GI50,M14 melanoma,1270 nM
same,TGI,M14 melanoma,3940 nM
same,GI50,SF-268 CNS,< 10 nM
same,TGI,SF-268 CNS,0.192 µM
same,GI50,MDA-MB-435 melanoma,1680 nM
same,TGI,MDA-MB-435 melanoma,5.34 µM
same,GI50,OVCAR-5 ovarian,1680 nM
same,TGI,OVCAR-5 ovarian,4.91 µM
same,GI50,NCI-H322M lung,3.81 µM
same,TGI,NCI-H322M lung,15.6 µM
same,GI50,NCI-H460 NSCLC,< 10 nM
same,TGI,NCI-H460 NSCLC,1340 nM
same,GI50,TK-10 renal,2610 nM
same,TGI,TK-10 renal,11.6 µM
same,GI50,SK-OV-3 ovarian,1010 nM
same,TGI,SK-OV-3 ovarian,3.41 µM
same,GI50,K-562 leukemia,1090 nM
same,TGI,K-562 leukemia,2420 nM
same,GI50,SK-MEL-5 melanoma,1340 nM
same,TGI,SK-MEL-5 melanoma,2890 nM
same,GI50,U251 glioblastoma,1350 nM
same,TGI,U251 glioblastoma,2.83 µM
same,GI50,MALME-3M melanoma,1510 nM
same,TGI,MALME-3M melanoma,3.34 µM
same,GI50,A498 renal,1180 nM
same,TGI,A498 renal,9.52 µM
same,GI50,SN12C renal,344 nM
same,TGI,SN12C renal,3800 nM
same,GI50,HT29 colon,1000 nM
same,TGI,HT29 colon,2310 nM
same,GI50,MCF7 breast,843 nM
same,TGI,MCF7 breast,7.15 µM
same,GI50,NCI/ADR-RES ovarian,17.6 µM
same,TGI,NCI/ADR-RES ovarian,42.4 µM
same,GI50,MDA-MB-231 breast,1320 nM
same,TGI,MDA-MB-231 breast,7.09 µM
same,GI50,786-0 renal,1450 nM
same,TGI,786-0 renal,5.23 µM
same,GI50,UO-31 renal,2670 nM
same,TGI,UO-31 renal,12 µM
